Laboratory results taken from patent US11040976B2, “Substrate selective inhibitors of insulin-degrading enzyme (IDE) and uses thereof” (President and Fellows of Harvard College, priority 2015, dated 2021).

Tests used:
[1] = target: T1, recombinant human IDE42-1019 (Homo sapiens, UniProt P14735); experiment: Protease assay with fluorogenic peptide substrate Mca-[…](Dnp)-OH; assay type: biochemical; conditions: fluorogenic peptide Mca-RPPGFSAFK(Dnp)-OH; for IC50: apparent IC50 for compounds with submaximal inhibition, read-out: IC50 (μM) Proteolysis; for Emax: plateau at high inhibitor concentration, read-out: Imax (%) Proteolysis (inhibition maximum)
T1 construct: recombinant human IDE42-1019 (R&D Systems); purchased R&D Systems
T1 sequence (P14735 42-1019): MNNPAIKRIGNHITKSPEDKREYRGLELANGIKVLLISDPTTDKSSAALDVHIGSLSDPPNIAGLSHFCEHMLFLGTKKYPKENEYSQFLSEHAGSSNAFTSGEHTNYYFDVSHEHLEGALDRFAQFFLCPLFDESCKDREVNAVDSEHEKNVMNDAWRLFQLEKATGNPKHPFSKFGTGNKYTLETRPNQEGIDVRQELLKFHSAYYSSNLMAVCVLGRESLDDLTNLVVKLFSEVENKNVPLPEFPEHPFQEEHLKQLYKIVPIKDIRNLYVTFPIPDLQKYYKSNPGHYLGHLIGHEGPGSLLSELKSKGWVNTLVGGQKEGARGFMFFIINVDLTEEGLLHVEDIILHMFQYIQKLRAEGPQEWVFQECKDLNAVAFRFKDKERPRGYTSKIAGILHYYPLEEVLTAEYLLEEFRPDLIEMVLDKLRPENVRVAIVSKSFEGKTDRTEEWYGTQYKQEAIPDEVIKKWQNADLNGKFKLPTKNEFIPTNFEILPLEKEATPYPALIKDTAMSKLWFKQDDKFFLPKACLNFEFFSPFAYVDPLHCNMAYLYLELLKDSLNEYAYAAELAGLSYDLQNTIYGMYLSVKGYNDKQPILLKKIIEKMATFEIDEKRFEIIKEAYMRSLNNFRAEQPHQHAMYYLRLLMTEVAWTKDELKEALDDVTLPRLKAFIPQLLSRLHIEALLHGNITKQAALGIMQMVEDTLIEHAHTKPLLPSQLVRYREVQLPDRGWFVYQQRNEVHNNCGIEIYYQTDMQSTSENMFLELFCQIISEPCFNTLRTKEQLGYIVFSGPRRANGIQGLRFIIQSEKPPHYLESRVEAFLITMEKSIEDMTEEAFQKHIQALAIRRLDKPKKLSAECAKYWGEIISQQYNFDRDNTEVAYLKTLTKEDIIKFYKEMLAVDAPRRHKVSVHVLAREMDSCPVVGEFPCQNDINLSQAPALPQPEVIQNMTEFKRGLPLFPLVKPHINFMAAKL
Protocol: The proteases IDE42-1019, recombinant human IDE42-1019 (R&D Systems), neprilysin (R&D), and angiotensin-converting enzyme (R&D) were assayed using the fluorophore/quencher-tagged peptide substrate Mca-[…](Dnp)-OH (SEQ ID NO: 24) (R&D) according to the manufacturer's instructions and using the recommended buffers (fluorophore Mca=(7-methoxycourmarin-4-yl)acetyl and quencher Dnp=2,4-dinitrophenyl). For IDE the recommended buffer is 50 mM Tris pH 7.5, 1 M NaCl. The enzyme mixtures (48 μL) were transferred to a 96-well plate and combined with 2 μL of inhibitor in DMSO solutions, in 3-fold dilution series. The mixtures were allowed to equilibrate for 10 minutes and the enzymatic reaction was started by addition of substrate peptide in assay buffer (50 μL), mixed, and monitored on a fluorescence plate reader (excitation at 320 nm, emission at 405 nm). Similarly, thimet oligopeptidase (R&D) and neurolysin (R&D) were assayed using substrate Mca-PLGPK(Dnp)-OH (SEQ ID NO: 25) (R&D) according to the manufacturer's instructions and using the recommended buffers. Matrix metalloproteinase-1 (R&D) was activated and assayed according to the manufacturer's instructions with substrate Mca-KPLGL-Dpa-AR-NH2 (SEQ ID NO: 20) (R&D) (quencher DPA=N-3-(2,4,dinitrophenyl)-L-2,3-diaminopropionyl). All assay data points were obtained in duplicate.

[2] = target: T2, Human N-His6-IDE42-1019 (E. coli expressed) (Homo sapiens, UniProt P14735); experiment: Fluorescence anisotropy high-throughput screening assay (displacement of probe FL-6b); assay type: binding
T2 construct: Human N-His6-IDE42-1019 (E. coli expressed); made in house; host or cells: E. coli (Rosetta 2 (DE3) pLysS, plasmid pTrcHis-A)
T2 sequence (P14735 42-1019): T1 sequence (P14735 42-1019)
Protocol: The fluorescence anisotropy screening method and probe FL-6b are described in PCT application PCT/US2014/064322, incorporated herein by reference.
Human N-His6-IDE42-1019 (E. coli expressed) was mixed with fluorescein-labeled macrocycle FL-6b:
[drawing 802] in 50 mM Tris buffer pH 8.0, with 1 M NaCl, at 25° C. Optimum signal was obtained using a mixture of […] probe FL-6b and 0.5 μM IDE. The “diversity-oriented (DOS) synthesis informer set” compound plates were pinned onto 384-well plates containing the enzyme-probe mixture (50 μL/well). The azetidine screen was pre-printed on 384-well plates and the enzyme-probe mixture was added (50 μL/well). The final compound concentration was 20 μM. IDE inhibitor 6bK was used as a positive control at a final concentration of 1 μM. After 30 minutes of equilibration, the increase in fluorescence anisotropy was recorded using an EnVision spectrophotometer (excitation 492 nm, emission 523 nm). The fluorescence anisotropy was independently measured twice for each screened compound. The Z-scores for each pair of measurements are plotted in FIG. 1A (DOS informer set) and FIG. 1B (azetidines), and average Z-scores are listed for exemplary compounds in Table E1.
Z-scores were calculated based on the raw anisotropy measured for each well according to Eq. 1, wherein x is the raw anisotropy value of the well, μ is the mean of the anisotropy of the negative control wells (DMSO) for the plate, and σ is the standard deviation in anisotropy of the negative control wells (DMSO) for the plate.

[3] = final compound concentration 20 μM (6bK control 1 μM), values without asterisk
[4] = values marked *: from the screen using the diversity-oriented synthesis (DOS) informer set of plates, 20 μM

SMILES	IC50 [1] [µM]	Emax [1] [%]	also measured
Cc1ccccc1-c1ccc(C2C3CN(C(=O)c4cnccn4)CC2N3)cc1 (stereo not drawn) [C1]	2	70	Average Z-score (Fluorescence anisotropy) [2, 3]: −20.0
Cc1ccccc1-c1ccc(C2C3CN(S(=O)(=O)c4cn(C)cn4)CC2N3)cc1 (stereo not drawn) [C2]	7	50	Average Z-score (Fluorescence anisotropy) [2, 3]: −16.62
Cc1ccccc1-c1ccc(C2C3CN(Cc4cccnc4)CC2N3)cc1 (stereo not drawn) [C5]	–	–	Average Z-score (Fluorescence anisotropy) [2, 3]: −13.95
COc1ccccc1-c1ccc([C@@H]2[C@@H](C#N)N(C(=O)C3CC3)[C@@H]2CO)cc1 [D1]	–	–	Average Z-score (Fluorescence anisotropy) [2, 3]: −16.97
COc1ccccc1-c1ccc([C@H]2[C@H](C#N)N[C@@H]2CO)cc1 [D7]	–	–	Average Z-score (Fluorescence anisotropy) [2, 3]: −10.49
Cc1ccccc1S(=O)(=O)N1CCCCN2C(C1)[C@H](c1ccc(-c3cccc(F)c3)cc1)[C@H]2CO (stereo partly drawn) [K11]	–	65	–
Cc1ccccc1S(=O)(=O)N1CCCCN2[C@H](CO)[C@@H](c3ccc(-c4cccc(F)c4)cc3)[C@@H]2C1 [K11]	2.5	–	–
Cc1ccccc1-c1ccc([C@H]2C3CN(S(=O)(=O)c4ccccc4C)CCCCN3[C@@H]2CO)cc1 (stereo partly drawn) [K12]	–	65	–
Cc1ccc(C)c(-c2ccc([C@@H]3[C@@H](CO)N4CCCCN(S(=O)(=O)c5ccccc5C)C[C@@H]34)cc2)c1 [K13]	0.09	–	–
Cc1ccc(C)c(-c2ccc([C@H]3C4CN(S(=O)(=O)c5ccccc5C)CCCCN4[C@@H]3CO)cc2)c1 (stereo partly drawn) [K13]	–	65	–
COc1ccccc1-c1ccc([C@H]2C3CN(S(=O)(=O)c4ccccc4C)CCCCN3[C@@H]2CO)cc1 (stereo partly drawn) [K14]	0.3	65	–
Cc1ccccc1S(=O)(=O)N1CCCCN2C(C1)[C@H](c1ccc(-c3cccc(F)c3F)cc1)[C@H]2CO (stereo partly drawn) [K15]	–	90	–
Cc1ccccc1S(=O)(=O)N1CCCCN2[C@H](CO)[C@@H](c3ccc(-c4cccc(F)c4F)cc3)[C@@H]2C1 [K15]	0.8	–	–
COc1ccc(C)cc1-c1ccc([C@@H]2[C@@H](CO)N3CCCCN(S(=O)(=O)c4ccccc4C)C[C@@H]23)cc1 [K16]	0.8	–	–
COc1ccc(-c2ccc([C@@H]3[C@@H](CO)N4CCCCN(S(=O)(=O)c5ccccc5C)C[C@@H]34)cc2)c(C)c1 [K17]	0.9	–	–
Cc1c(-c2ccc([C@@H]3[C@@H](CO)N4CCCCN(S(=O)(=O)c5ccccc5C(F)(F)F)C[C@@H]34)cc2)cccc1C(F)(F)F [K19]	0.1	–	–
Cc1ccccc1S(=O)(=O)N1CCCCN2[C@H](CO)[C@@H](c3ccc(-c4cccc(F)c4C)cc3)[C@@H]2C1 [K20]	0.1	–	–
O=S(=O)(c1ccccc1C(F)(F)F)N1C/C=C\CN2C(C1)[C@H](c1ccc(-c3cccc(Cl)c3Cl)cc1)[C@H]2CO (stereo partly drawn) [K21]	0.008	–	–
Cc1c(Cl)cccc1-c1ccc([C@H]2C3CN(S(=O)(=O)c4ccccc4C(F)(F)F)C/C=C\CN3[C@@H]2CO)cc1 (stereo partly drawn) [K22]	0.01	–	–
Cc1ccccc1S(=O)(=O)N1CCCCN2[C@H](CO)[C@@H](c3ccc(-c4cccc(F)c4C(F)(F)F)cc3)[C@@H]2C1 [K23]	0.3	–	–

SMILES	IC50 [1] [µM]	Emax [1] [%]	also measured
Cc1ccccc1S(=O)(=O)N1CCCCN2[C@H](CO)[C@@H](c3ccc(-c4ccc(F)c(F)c4C)cc3)[C@@H]2C1 [K24]	0.3	–	–
Cc1ccccc1S(=O)(=O)N1CCCCN2C(C1)[C@H](c1ccc(-c3cnc(F)c(C)c3)cc1)[C@H]2CO (stereo partly drawn) [K26]	–	100	–
Cc1ccccc1S(=O)(=O)N1CCCCN2[C@H](CO)[C@@H](c3ccc(-c4cnc(F)c(C)c4)cc3)[C@@H]2C1 [K26]	4	–	–
Cc1ccccc1S(=O)(=O)N1CCCCN2[C@H](CF)[C@@H](c3ccc(-c4cccc(C)c4C)cc3)[C@@H]2C1 [K28]	0.05	–	–
Cc1cccc(-c2ccc([C@H]3C4CN(S(=O)(=O)c5ccccc5C)CCCCN4[C@@H]3CN)cc2)c1 (stereo partly drawn) [K29]	0.25	–	–
COc1cccc(C#Cc2ccc([C@@H]3[C@H](CO)N4C(=O)CN(C(=O)Cc5cccnc5)C[C@@H]34)cc2)c1 [compound 089]	–	–	Average Z-score (Fluorescence anisotropy) [2, 3]: −4.11
Cc1cccc(-c2ccc([C@H]3[C@H](CO)N4C(=O)CN(C(=O)NC5CCCCC5)C[C@@H]34)cc2)c1 [compound 130]	> 5	60	–
CCCNC(=O)N1CC(=O)N2[C@@H](CO)[C@H](c3ccc(-c4cccc(C)c4)cc3)[C@@H]2C1 [compound 231]	2.5	60	–
Cc1cccc(-c2ccc([C@@H]3[C@@H](CO)N4CCCCN(C(=O)c5ccc6c(c5)OCO6)C[C@@H]34)cc2)c1 [compound 291]	> 200	–	–
COC[C@H]1[C@H](c2ccc(C#Cc3ccccc3F)cc2)[C@@H]2CN(C(=O)NC(C)C)CCCCN12 [compound 304]	2	80	–
O=C(NC1CCCC1)N1CCCCN2[C@@H](CO)[C@H](c3ccc(/C=C/c4ccccc4)cc3)[C@@H]2C1 [compound 346]	1.5	80	–
Cc1ccccc1-c1ccc([C@@H]2[C@H](CO)N3CCCCN(C(=O)Cc4ccccn4)C[C@@H]23)cc1 [compound 469]	–	80	–
Cc1ccccc1-c1ccc([C@H]2[C@H]3CN(C(=O)NC4CCCC4)CC(=O)N3[C@H]2CO)cc1 [compound 612]	–	50	–
COc1cccc(-c2ccc([C@@H]3[C@@H](CO)N4CCCCN(CC5CCOCC5)C[C@@H]34)cc2)c1 [compound 644]	> 100	–	–
OC[C@H]1[C@@H](c2ccc(C#Cc3ccccc3F)cc2)[C@@H]2CN(Cc3cncnc3)CCCCN12 [compound 683]	7	80	–
Cc1cccc(-c2ccc([C@@H]3[C@@H](CO)N4CCCCN(S(=O)(=O)c5ccccc5F)C[C@@H]34)cc2)c1 [compound 688]	–	–	Average Z-score (Fluorescence anisotropy) [2, 4]: −27.23*
CCCNC(=O)N1CC(=O)N2[C@H](CO)[C@H](c3ccc(-c4cccc(C)c4)cc3)[C@@H]2C1 [compound 782]	–	–	Average Z-score (Fluorescence anisotropy) [2, 3]: −16.08
O=C(NC1CCCC1)N1CCCCN2[C@@H](CO)[C@H](c3ccc(/C=C/c4ccccc4)cc3)[C@@H]2C1 [compound 900]	> 7.5	–	–
COc1ccccc1C#Cc1ccc([C@@H]2[C@H](CO)N3CCCCN(C(=O)C4CCC4)C[C@@H]23)cc1 [compound 930]	–	–	Average Z-score (Fluorescence anisotropy) [2, 4]: −10.53*
Cc1ccccc1-c1ccc([C@@H]2[C@H](CO)N3C(=O)CN(C(=O)NC4CCCC4)C[C@@H]23)cc1 [compound 1576]	2.5	60	–
